One data set has as its target T1, SRPK1 (Homo sapiens, UniProt Q96SB4).
T1 construct: purchased MRC Dundee Kinase Centre (external assay service)
Briefly: In vitro kinase assay (radioactive filter binding, 33P ATP). Format: biochemical. Here is the method:
Kinase assays were carried out by the MRC Dundee Kinase Centre using a radioactive filter binding assay using ^33P ATP (Hastie, et al 2006. Nat Protoc. 2006; 1(2):968-71; Bain, et al 2007. Biochem J. 2007 Dec. 15; 408(3):297-315).

Data set [1] has as its system choroidal neovascularisation. Description: Laser-induced choroidal neovascularisation (CNV). The format is in vivo, C57/B6 mice. Here is the method: 6-8 week-old female C57/B6 mice were anesthetized with an intraperitoneal injection of a mixture of 50 mg/kg ketamine and 0.5 mg/kg medetomidine. The pupils were immediately dilated by topical (eyedrop) application with a dilator such as 5% phenylephrine hydrochloride and 1% tropicamide. Four photocoagulation lesions were delivered with a green Merilas 532α laser (450 mW, 130 ms) between the “large” retinal vessels in clear space with no vessels in a peripapillary distribution at a distance of 1-2 disc-diameters in each eye. Only clean laser lesions with a subretinal bubble at the time of treatment were included in the study. Immediately following laser photocoagulation the animals were given topical eye drops of candidate compounds twice daily at 2 μg/mL, 0.2 μg/mL or 0.066 μg/mL or eye drop formulation control as indicated (10 μL, eyes held for 30 seconds to prevent animal wiping drop away). Experiments were performed with an initial eye drop formulation containing 1% hydroxypropyl methyl cellulose, 0.2% tyloxapol, 3.4% dextrose, 0.006% benzalkonium chloride, and 0.025% ethylenediaminetetraacetic acid with 1% DMSO in PBS and data were confirmed in a second eye drop formulation containing 7% poly-oxyl-40-stearate and 4% dextrose in PBS.
After one week, mice were anesthetized with an intraperitoneal injection of a mixture of 50 mg/kg ketamine and 0.5 mg/kg medetomidine. […]

The test system of another data set is VEGF-A165a isoform. Briefly: VEGF isoform specific ELISA in retinal pigmented epithelial cells. Format: cell-based, human. The following applies: FIG. 5. The method, then: 96-well clear microplate (high sensitivity thermo immulon or costar 9018) were coated with 100 μL of 10 μg/mL VEGFxxxb or 0.25 μg/mL anti-hVEGF165a per well. The plate was sealed with parafilm and incubated overnight on the shaker at room temp. Each well was aspirated and washed with Wash Buffer (200 μL PBS-Tween 0.05%), […] for a total of three washes. After the last wash, remaining Wash Buffer was removed by inverting the plate and blotting it against clean paper towels. Plates were blocked by adding 100 μL of Reagent Diluent (1% BSA/PBS) to each well and incubated at room temp on a shaker for 2 hours. The aspiration/wash step was repeated. 100 μL of standards or samples in 1% BSA/PBS were added to each well, covered with parafilm and incubated 2 hours at room temperature. The aspiration/wash was repeated and 100 μL of 100 ng/mL of Detection Antibody (BAF293), diluted in Reagent Diluent, was added to each well which were covered with parafilm and incubated 2 hours at room temperature. The aspiration/wash was repeated and 100 μL of the working dilution of Streptavidin-HRP (1:200 dilution) was added to each well. […] The optical density of each well was measured immediately, using a microplate reader set to 450 nm.
To determine whether compound 1 could switch splicing of VEGF isoforms, VEGF was measured in retinal pigmented epithelial cells by isoform specific ELISA.
(An ELISA detects its analyte on a solid surface through an enzyme-linked reagent.)

Another data set deals with VEGF-A165b and panVEGF. Briefly: STZ model of diabetes, retinal VEGF immunoblotting. Format: in vivo, Norway Brown rats. As to conditions: diabetic rats, bidaily eye drops for 28 days, Western blot. Here is the method:
To determine whether compound 1 could effectively switch the splicing of VEGF in a model of diabetes we used the STZ model of diabetes in Norway Brown rats. Diabetic animals were treated with twice daily eye drops of compound 1 for four weeks and killed, and the retina dissected. Protein was extracted and subjected to immunoblotting for VEGF-A165b and panVEGF.
In general terms: A western blot detects proteins with antibodies after separation by electrophoresis.

The nature of data set [2]: Porcine scleral permeability (modified Ussing chamber). The format is in vitro ADME. The following applies: pig, pH 7.4, porcine excised eye tissue, 10 μg/mL compound on donor side. Here is the method:
Scleral permeability was measured using a modified Ussing chamber assembly in the initial eye drop formulation containing 1% hydroxypropyl methyl cellulose, 0.2% tyloxapol, 3.4% dextrose, 0.006% benzalkonium chloride, and 0.025% ethylenediaminetetraacetic acid with 1% DMSO in PBS (pH 7.4). Porcine excised eye tissues were mounted in the chambers such that the episcleral side faced the donor chamber and the retinal side faced the receiver chamber. The chambers were filled with equal volumes of eye drop formulation, with (donor side) or without (receiver side) 10 μg/mL compound. After 24 hours tissue was removed from the chamber and the receiver side (“vitreous”) sampled. Tissue was dissected into sclera, choroid/RPE, and retina and homogenised. A tracer (SPHINX7; WO 2015/159103) was added, and tissue extracted by acetonitrile extraction as described in Batson et al (2017). Compounds were then analysed by mass spectrometry as described in Batson et al (2017).
To determine whether compounds could get across the sclera of a larger animal, porcine sclera was clamped between two chambers and compounds were added to the sclera with eye drop formulation added to the bottom chamber and compounds added to the top chamber. After 24 hours, the fluid from the bottom chamber (vitreous) and the retinal tissue was isolated and compounds purified by methanol or acetonitrile extraction and HPLC.

T1 sequence (Q96SB4 whole entry): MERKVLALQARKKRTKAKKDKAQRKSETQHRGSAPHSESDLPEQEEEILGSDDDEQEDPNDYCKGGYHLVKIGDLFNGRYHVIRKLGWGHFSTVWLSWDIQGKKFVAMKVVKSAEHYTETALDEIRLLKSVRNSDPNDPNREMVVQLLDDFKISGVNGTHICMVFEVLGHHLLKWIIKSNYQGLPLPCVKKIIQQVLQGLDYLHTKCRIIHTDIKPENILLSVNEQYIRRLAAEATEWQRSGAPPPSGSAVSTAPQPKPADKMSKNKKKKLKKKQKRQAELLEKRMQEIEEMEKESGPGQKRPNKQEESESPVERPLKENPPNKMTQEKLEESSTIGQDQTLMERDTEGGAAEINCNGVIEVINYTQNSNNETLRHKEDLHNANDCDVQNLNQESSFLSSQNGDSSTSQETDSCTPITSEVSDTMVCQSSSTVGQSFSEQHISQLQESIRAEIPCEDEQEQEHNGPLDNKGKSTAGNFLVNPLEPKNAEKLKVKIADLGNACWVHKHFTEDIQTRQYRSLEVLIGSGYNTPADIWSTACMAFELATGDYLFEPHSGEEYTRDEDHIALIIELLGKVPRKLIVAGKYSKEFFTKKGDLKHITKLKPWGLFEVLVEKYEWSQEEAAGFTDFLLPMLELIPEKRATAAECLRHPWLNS

On to `Cn1ccc(CN2CCN(c3ccc(C(F)(F)F)cc3NC(=O)c3ccc(C4CCOCC4)o3)CC2)n1` [Compound 1, N-(2-(4-((1-methyl-1H-pyrazol-3-yl)methyl)piperazin-1-yl)-5-(trifluoromethyl)phenyl)-5-(tetrahydro-2H-pyran-4-yl)furan-2-carboxamide], for which the melting point (as a rule, the temperature of the solid-liquid transition) is 148 to 150 °C. Moreover, the IC50 (as a rule, the point on the concentration scale where inhibition reaches its midpoint) at SRPK1 came to 4 nM. The “Anti-angiogenic activity on lesion size versus reference compounds” value in data set [1] (laser-induced mouse model of CNV, FIG. 7) is given as “same anti-angiogenic activity on lesion size as reference compounds”. Moreover, the “Inhibition of choroidal neovascularisation” value in data set [1] (mouse, eye drops twice daily at 0.066 μg/mL, FIG. 7b) was “significantly inhibited”. Besides, the “Expression of pro-angiogenic VEGF-A165a isoform” value with VEGF-A165a isoform is on record as “reduces expression of the pro-angiogenic VEGF-A165a isoform in a dose dependent manner”. In the data set on VEGF-A165b and panVEGF, the “Proportion of VEGF-A165b to total VEGF” value is given as “increased”, the “Total VEGF in retina” value is reported as “total VEGF is reduced” and the VEGF-A165b in retina result is listed as “VEGF-A165b is increased”. The Papp (commonly a coefficient for how fast a substance crosses the barrier) at 24 h, 10 μg/mL in data set [2] came out at 0.067 ×10⁻⁶ cm/s.

The values above are taken from patent publication US12024504B2, “1-methyl-1H-pyrazol-3-yl derivatives for use in the treatment of neovascular diseases” (EXONATE LIMITED, priority 2021, dated 2024).
